Results: US9809623B2, “α4β7 peptide monomer and dimer antagonists” (Protagonist Therapeutics, Inc., priority 2014, dated 2017)
Read-outs that look alike come from different tables or passages of the source. Numbered stars: 1 amine (or outer) side, 2 acyl side, 3 side chain; on linkers, the order of the positions; unused ones are H or OH. Bridge positions count the residues as written; N and C are the ends. Square brackets hold non-standard residues; d marks the D form. Peptide text beside a SMILES is read from it. I, II: the chains in the order shown. Phe(3-CONH2) = NC(=O)c1cccc(C[C@H](N)C(=O)O)c1; Phe(4-F) = N[C@@H](Cc1ccc(F)cc1)C(=O)O; 1Nal = N[C@@H](Cc1cccc2ccccc12)C(=O)O; Diglycolyl = O=C(COCC(=O)[*:2])[*:1]; NMeR = CN[C@@H](CCCNC(=N)N)C(=O)O; Tic = O=C(O)[C@@H]1Cc2ccccc2CN1; Cit = NC(=O)NCCC[C@H](N)C(=O)O; Pen = CC(C)(S)[C@H](N)C(=O)O

Tests used:
rh integrin α4β7 = target: T1, rh integrin α4β7 (Homo sapiens, UniProt P13612+P26010); test: α4β7-MAdCAM Competition ELISA; format: binding; settings: Table 3-B, Potency (α4β7); range classes; read-out: α4β7 ELISA IC50
T1 construct: purchased R&D Systems 5397-A30
T1 sequence (P13612 34-977 limits assumed): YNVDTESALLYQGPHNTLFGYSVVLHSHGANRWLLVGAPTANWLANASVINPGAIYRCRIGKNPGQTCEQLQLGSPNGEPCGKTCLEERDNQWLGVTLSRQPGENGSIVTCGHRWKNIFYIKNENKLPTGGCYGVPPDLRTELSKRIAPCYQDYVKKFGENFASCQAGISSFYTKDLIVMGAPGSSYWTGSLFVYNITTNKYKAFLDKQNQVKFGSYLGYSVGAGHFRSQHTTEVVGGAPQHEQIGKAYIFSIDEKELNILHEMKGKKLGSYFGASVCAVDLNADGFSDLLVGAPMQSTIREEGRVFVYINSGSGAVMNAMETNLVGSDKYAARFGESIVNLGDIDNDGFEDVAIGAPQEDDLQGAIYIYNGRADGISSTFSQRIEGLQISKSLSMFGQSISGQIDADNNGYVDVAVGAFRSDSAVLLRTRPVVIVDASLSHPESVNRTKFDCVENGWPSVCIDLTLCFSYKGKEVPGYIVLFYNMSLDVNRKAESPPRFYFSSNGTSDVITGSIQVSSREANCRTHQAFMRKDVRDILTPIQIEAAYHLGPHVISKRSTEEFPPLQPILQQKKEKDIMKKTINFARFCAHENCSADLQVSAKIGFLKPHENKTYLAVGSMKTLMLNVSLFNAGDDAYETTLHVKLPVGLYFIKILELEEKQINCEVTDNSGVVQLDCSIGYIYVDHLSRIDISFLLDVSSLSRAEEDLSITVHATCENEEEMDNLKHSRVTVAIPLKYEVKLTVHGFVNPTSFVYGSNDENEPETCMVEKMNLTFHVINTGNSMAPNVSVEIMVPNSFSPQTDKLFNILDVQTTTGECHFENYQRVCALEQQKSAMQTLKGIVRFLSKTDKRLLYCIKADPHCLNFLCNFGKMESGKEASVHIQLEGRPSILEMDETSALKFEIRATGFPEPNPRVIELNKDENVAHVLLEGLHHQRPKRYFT
T1 sequence (P26010 20-723 limits assumed): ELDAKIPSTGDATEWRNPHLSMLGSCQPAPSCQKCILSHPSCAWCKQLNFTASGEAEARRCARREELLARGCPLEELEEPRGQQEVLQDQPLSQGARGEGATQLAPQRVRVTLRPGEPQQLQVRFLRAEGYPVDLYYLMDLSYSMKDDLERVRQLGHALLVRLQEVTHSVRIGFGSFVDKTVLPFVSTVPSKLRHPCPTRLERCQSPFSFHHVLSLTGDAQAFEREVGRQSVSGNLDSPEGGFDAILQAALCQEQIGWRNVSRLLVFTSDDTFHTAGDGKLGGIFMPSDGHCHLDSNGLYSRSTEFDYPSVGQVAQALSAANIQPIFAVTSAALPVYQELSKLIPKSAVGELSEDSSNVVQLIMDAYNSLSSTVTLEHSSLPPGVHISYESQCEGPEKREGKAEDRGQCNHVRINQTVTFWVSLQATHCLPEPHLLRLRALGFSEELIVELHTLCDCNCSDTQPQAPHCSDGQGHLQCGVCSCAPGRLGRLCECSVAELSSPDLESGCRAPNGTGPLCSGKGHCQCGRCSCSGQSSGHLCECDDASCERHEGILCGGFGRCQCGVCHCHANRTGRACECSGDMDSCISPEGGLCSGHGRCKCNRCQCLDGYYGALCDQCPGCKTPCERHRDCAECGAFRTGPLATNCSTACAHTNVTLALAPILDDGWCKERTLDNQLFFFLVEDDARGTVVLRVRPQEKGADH
Method: A nickel coated plate (Pierce #15442) was coated with rh integrin α4β7 (R&D Systems #5397-A30) at 800 ng/well and incubated at room temperature with shaking for 1 hr. The solution was then removed by shaking and blocked with assay buffer (50 mM Tris-HCl pH7.6, 150 mM NaCl, 1 mM MnCl2 or MgCl2, 0.05% Tween-20 and 0.5% BSA) at 250 ul/well. The plate was then incubated at room temperature for 1 hr. Each well was washed 3 times with wash buffer (50 mM Tris-HCl pH7.6, 100 mM NaCl, 1 mM MnCl2 or MgCl2, 0.05% Tween-20). To each well was added 25 ul of a serial dilution (3-fold dilutions in assay buffer) of peptide starting at 20 μM. 25 ul of recombinant human MAdCAM-1 (R&D Systems #6056-MC) was then added to each well at a fixed concentration 20 nM. The final starting peptide concentration was 10 μM, and the final MAdCAM-1 concentration was 10 nM. The plates were then incubated at room temperature for 1 hr to reach binding equilibrium. The wells were then washed three times with wash buffer. 50 ul of mouse anti-human IgG1-HRP (Invitrogen # A10648) diluted in 1:2000 in assay buffer was then added to each well. The wells were incubated at room temperature for 45 min with shaking. The wells were then washed 3 times with wash buffer. 100 ul of 3,3′,5,5′-Tetramethylbenzidine (TMB) were then added to each well and closely observe during development time. The reaction was stopped with 2N H2SO4 and absorbance was read at 450 nm.
TMB is a chromogenic substrate suitable for use in ELISA procedures, which utilize horseradish peroxidase conjugates. This substrate produces a soluble end product that is blue in color and can be read spectrophotometrically at 370 or 655 nm. The reaction maybe stopped with 2 M H2S04, resulting in a yellow solution that is read at 450 nm. Each tablet contains 1 mg of TMB substrate. To prepare TMB Substrate Solution, dissolve one 3,3′,5,5′-tetramethylbenzidine tablet in 1 ml of DMSO and add to 9 ml of 0.05 M Phosphate-Citrate Buffer, pH 5.0. Add 2 μl of fresh 30% hydrogen peroxide (Product No. H 1009) per 10 ml of substrate buffer solution, immediately prior to use.

α4β7 = α4β7 (Homo sapiens, UniProt P13612+P26010); test: α4β7-MAdCAM Cell Adhesion Assay (RPMI 8866 human cells); format: cell-based; design: host or cells: RPMI 8866 human B lymphoblastoid cells; settings: Table 3-B, Potency (α4β7); range classes; read-out: α4β7 cell (Hu) IC50
α4β7, sequence (P13612 34-1032): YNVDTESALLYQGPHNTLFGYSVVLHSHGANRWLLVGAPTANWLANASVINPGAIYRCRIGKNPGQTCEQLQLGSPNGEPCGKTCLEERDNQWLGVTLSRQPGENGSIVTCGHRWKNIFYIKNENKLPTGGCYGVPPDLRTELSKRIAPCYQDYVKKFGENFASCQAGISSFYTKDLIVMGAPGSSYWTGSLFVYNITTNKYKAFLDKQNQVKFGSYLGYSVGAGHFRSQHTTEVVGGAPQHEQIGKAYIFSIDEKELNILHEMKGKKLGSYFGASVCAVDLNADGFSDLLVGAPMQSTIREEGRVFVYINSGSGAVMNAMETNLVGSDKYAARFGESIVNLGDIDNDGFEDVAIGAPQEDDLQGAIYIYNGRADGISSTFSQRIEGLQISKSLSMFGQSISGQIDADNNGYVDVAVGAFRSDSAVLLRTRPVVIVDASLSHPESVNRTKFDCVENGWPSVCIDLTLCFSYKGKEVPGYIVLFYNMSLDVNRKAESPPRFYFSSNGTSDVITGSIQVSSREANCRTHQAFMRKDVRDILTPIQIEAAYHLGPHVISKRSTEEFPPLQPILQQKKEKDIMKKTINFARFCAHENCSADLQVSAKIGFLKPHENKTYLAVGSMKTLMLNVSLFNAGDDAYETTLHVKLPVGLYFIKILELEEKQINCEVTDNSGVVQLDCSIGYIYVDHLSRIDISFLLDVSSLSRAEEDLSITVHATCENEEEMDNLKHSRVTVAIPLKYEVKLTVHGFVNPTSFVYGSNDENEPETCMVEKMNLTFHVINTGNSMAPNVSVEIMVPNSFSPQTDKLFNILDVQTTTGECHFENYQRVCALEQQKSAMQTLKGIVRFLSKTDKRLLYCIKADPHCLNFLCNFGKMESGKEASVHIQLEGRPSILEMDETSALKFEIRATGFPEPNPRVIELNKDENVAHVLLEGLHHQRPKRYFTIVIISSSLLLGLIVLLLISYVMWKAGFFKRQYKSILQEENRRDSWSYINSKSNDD
α4β7, sequence (P26010 20-798): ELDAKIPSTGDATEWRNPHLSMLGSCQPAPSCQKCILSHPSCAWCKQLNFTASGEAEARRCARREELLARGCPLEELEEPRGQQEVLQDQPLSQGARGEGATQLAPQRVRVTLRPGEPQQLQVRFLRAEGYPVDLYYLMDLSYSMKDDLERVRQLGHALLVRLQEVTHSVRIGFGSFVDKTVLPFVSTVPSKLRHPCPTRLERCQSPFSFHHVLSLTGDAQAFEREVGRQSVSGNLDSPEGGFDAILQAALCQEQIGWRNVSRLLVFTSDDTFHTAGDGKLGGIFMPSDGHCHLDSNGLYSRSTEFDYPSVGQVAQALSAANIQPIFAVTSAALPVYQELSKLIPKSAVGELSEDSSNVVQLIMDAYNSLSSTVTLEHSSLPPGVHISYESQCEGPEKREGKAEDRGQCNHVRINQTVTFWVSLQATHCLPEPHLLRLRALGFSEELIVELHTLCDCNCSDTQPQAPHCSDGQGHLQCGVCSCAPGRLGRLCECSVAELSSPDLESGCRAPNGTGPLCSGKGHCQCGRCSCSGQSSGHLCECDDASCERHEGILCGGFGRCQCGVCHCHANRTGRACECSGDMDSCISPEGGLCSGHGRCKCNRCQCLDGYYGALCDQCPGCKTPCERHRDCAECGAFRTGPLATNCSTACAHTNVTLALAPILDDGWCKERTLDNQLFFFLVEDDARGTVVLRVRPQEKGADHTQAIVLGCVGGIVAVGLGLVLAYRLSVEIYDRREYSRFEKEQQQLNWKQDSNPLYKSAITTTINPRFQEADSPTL
Method in brief: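 Washed RPMI 8866 cells (200,000/well) in DMEM with 0.1% BSA, 10 mM HEPES pH 7, 1 mM MnCl2 adhered to rh MAdCAM-1/Fc-coated wells with serially diluted peptides, 30-45 min at 37 °C. After three washes, bound cells quantified by MTT, A570, cell-free background subtracted for dose response.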

[1] = Simulated Intestinal Fluid (SIF) Stability Assay; format: in vitro ADME, porcine; settings: pig, pH 6.5, Table 3-B
Method: Studies were carried out in simulated intestinal fluid (SIF) to evaluate intestinal stability of the peptide molecules of the instant invention. To prepare the SIF reagent, blank FASSIF was prepared by dissolving 0.348 g NaOH, 3.954 g sodium phosphate monobasic monohydrate and 6.186 g NaCl in a final volume of 1 liter water (final pH=6.5). To this solution, 24 g porcine pancreatin (Sigma catalog P7545) was added and stirred for 30 minutes (final pancreatin concentration is 2.4%). The solution was filtered through a cheese cloth and a No. 1 Whatman filter, and 10 ml aliquots were stored at −70° C. To run the reaction, a 10 ml aliquot was thawed at 37° C., and 125 ul aliquots were removed and mixed with an equal volume of blank FASSIF. The peptide stock solution (10 mM in 100% DMSO) was diluted 75-fold in blank FASSIF. A 50 μl aliquot of the diluted peptide was combined with 125 μl pancreatin (2.4%) and 125 μl blank FASSIF to yield final concentrations of 1% pancreatin and 22 μM peptide. The reactions were incubated at 37° C., and at various time points 50 μl aliquots were removed and added to 200 μl of quench solution containing 50% acetonitrile, 50% methanol, 5% formic acid, and 1 μg/ml internal standard. The quenched samples were centrifuged at 10,000 rpm for 10 minutes, and the supernatants were analyzed by LCMS/MS. The percent remaining at each time point was calculated based on the peak area response ratio of test to compound to internal standard. Half-lives were calculated by fitting to a first-order exponential decay equation using GraphPad.

[2] = simulated intestinal fluid (SIF) with 1% porcine pancreatin, > means experiment was stopped at that time and half life was not reached, read-out: Stabilty SIF t1/2

CC(=O)N[C@@H]1C(=O)N(C)[C@@H](CCCNC(=N)N)C(=O)N[C@@H](CO)C(=O)N[C@@H](CC(=O)O)C(=O)N[C@@H]([C@@H](C)O)C(=O)N[C@@H](CC(C)C)C(=O)N[C@H](C(=O)N[C@@H](Cc2cccc3ccccc23)C(=O)N[C@H](CCC(=O)O)C(=O)N[C@H](CCCCN)C(N)=O)C(C)(C)SSC1(C)C [compound 8] (Ac-[Pen][NMeR]SDTL[Pen][1Nal][dE][dK]-NH2; disulfide 1-7)
IC50 (rh integrin α4β7): 0.025 to 0.05 µM

CC(=O)N[C@@H]1C(=O)N(C)[C@@H](CCCNC(=N)N)C(=O)N[C@@H](CO)C(=O)N[C@@H](CC(=O)O)C(=O)N[C@@H]([C@@H](C)O)C(=O)N[C@@H](CC(C)C)C(=O)N[C@H](C(=O)N2Cc3ccccc3C[C@H]2C(=O)N[C@H](CCC(=O)O)C(=O)N[C@H](CCCCNC(=O)COCC(=O)NCCCC[C@@H](NC(=O)[C@@H](CCC(=O)O)NC(=O)[C@@H]2Cc3ccccc3CN2C(=O)[C@H]2NC(=O)[C@H](CC(C)C)NC(=O)[C@H]([C@@H](C)O)NC(=O)[C@H](CC(=O)O)NC(=O)[C@H](CO)NC(=O)[C@H](CCCNC(=N)N)N(C)C(=O)[C@@H](NC(C)=O)C(C)(C)SSC2(C)C)C(N)=O)C(N)=O)C(C)(C)SSC1(C)C [compound 80] (I: Ac-[Pen][NMeR]SDTL[Pen][Tic][dE][dK]-NH2 / II: Ac-[Pen][NMeR]SDTL[Pen][Tic][dE][dK]-NH2; disulfide I:1-I:7, II:1-II:7; linker I:10-II:10 via Diglycolyl)
IC50 (α4β7): 0.05 to 0.1 µM | half-life at 22 μM [1, 2]: > 3 h

CC(=O)N[C@@H]1C(=O)N(C)[C@@H](CCCNC(=N)N)C(=O)N[C@@H](CO)C(=O)N[C@@H](CC(=O)O)C(=O)N[C@@H]([C@@H](C)O)C(=O)N[C@@H](CC(C)C)C(=O)N[C@H](C(=O)N[C@@H](Cc2c[nH]c3ccccc23)C(=O)N[C@@H](CCCNC(N)=O)C(=O)N[C@H](CCCCNC(=O)COCC(=O)NCCCC[C@@H](NC(=O)[C@H](CCCNC(N)=O)NC(=O)[C@H](Cc2c[nH]c3ccccc23)NC(=O)[C@H]2NC(=O)[C@H](CC(C)C)NC(=O)[C@H]([C@@H](C)O)NC(=O)[C@H](CC(=O)O)NC(=O)[C@H](CO)NC(=O)[C@H](CCCNC(=N)N)N(C)C(=O)[C@@H](NC(C)=O)C(C)(C)SSC2(C)C)C(N)=O)C(N)=O)C(C)(C)SSC1(C)C [compound 84] (I: Ac-[Pen][NMeR]SDTL[Pen]W[Cit][dK]-NH2 / II: Ac-[Pen][NMeR]SDTL[Pen]W[Cit][dK]-NH2; disulfide I:1-I:7, II:1-II:7; linker I:10-II:10 via Diglycolyl)
IC50 (α4β7): 0.01 to 0.025 µM | half-life at 22 μM [1, 2]: < 0.333 h

CC(=O)N[C@@H]1C(=O)N(C)[C@@H](CCCNC(=N)N)C(=O)N[C@@H](CO)C(=O)N[C@@H](CC(=O)O)C(=O)N[C@@H]([C@@H](C)O)C(=O)N[C@@H](CC(C)C)C(=O)N[C@H](C(=O)N[C@@H](Cc2cccc(C(N)=O)c2)C(=O)N[C@H](CCC(=O)O)C(=O)N[C@H](CCCCNC(=O)COCC(=O)NCCCC[C@@H](NC(=O)[C@@H](CCC(=O)O)NC(=O)[C@H](Cc2cccc(C(N)=O)c2)NC(=O)[C@H]2NC(=O)[C@H](CC(C)C)NC(=O)[C@H]([C@@H](C)O)NC(=O)[C@H](CC(=O)O)NC(=O)[C@H](CO)NC(=O)[C@H](CCCNC(=N)N)N(C)C(=O)[C@@H](NC(C)=O)C(C)(C)SSC2(C)C)C(N)=O)C(N)=O)C(C)(C)SSC1(C)C [compound 99] (I: Ac-[Pen][NMeR]SDTL[Pen][Phe(3-CONH2)][dE][dK]-NH2 / II: Ac-[Pen][NMeR]SDTL[Pen][Phe(3-CONH2)][dE][dK]-NH2; disulfide I:1-I:7, II:1-II:7; linker I:10-II:10 via Diglycolyl)
IC50 (α4β7): 0.1 to 0.5 µM | half-life at 22 μM ([1]; simulated intestinal fluid (SIF) with porcine pancreatin, > means experiment was stopped at that time and half life was not reached, read-out: Stabilty SIF t1/2): > 3 h

CC(=O)N[C@@H]1C(=O)N(C)[C@@H](CCCNC(=N)N)C(=O)N[C@@H](CO)C(=O)N[C@@H](CC(=O)O)C(=O)N[C@@H]([C@@H](C)O)C(=O)N[C@@H](CC(C)C)C(=O)N[C@H](C(=O)N[C@@H](Cc2c[nH]c3ccccc23)C(=O)N[C@H](Cc2c[nH]cn2)C(=O)N[C@H](CCCCNC(=O)COCC(=O)NCCCC[C@@H](NC(=O)[C@@H](Cc2c[nH]cn2)NC(=O)[C@H](Cc2c[nH]c3ccccc23)NC(=O)[C@H]2NC(=O)[C@H](CC(C)C)NC(=O)[C@H]([C@@H](C)O)NC(=O)[C@H](CC(=O)O)NC(=O)[C@H](CO)NC(=O)[C@H](CCCNC(=N)N)N(C)C(=O)[C@@H](NC(C)=O)C(C)(C)SSC2(C)C)C(N)=O)C(N)=O)C(C)(C)SSC1(C)C [compound 104] (I: Ac-[Pen][NMeR]SDTL[Pen]W[dH][dK]-NH2 / II: Ac-[Pen][NMeR]SDTL[Pen]W[dH][dK]-NH2; disulfide I:1-I:7, II:1-II:7; linker I:10-II:10 via Diglycolyl)
IC50 (α4β7): 0.1 to 0.5 µM | half-life at 22 μM [1, 2]: 0.583 h

CC(=O)N[C@@H]1C(=O)N(C)[C@@H](CCCNC(=N)N)C(=O)N[C@@H](CO)C(=O)N[C@@H](CC(=O)O)C(=O)N[C@@H]([C@@H](C)O)C(=O)N[C@@H](CC(C)C)C(=O)N[C@H](C(=O)N[C@@H](Cc2ccc(F)cc2)C(=O)N[C@H](CCC(=O)O)C(=O)N[C@H](CCCCNC(=O)COCC(=O)NCCCC[C@@H](NC(=O)[C@@H](CCC(=O)O)NC(=O)[C@H](Cc2ccc(F)cc2)NC(=O)[C@H]2NC(=O)[C@H](CC(C)C)NC(=O)[C@H]([C@@H](C)O)NC(=O)[C@H](CC(=O)O)NC(=O)[C@H](CO)NC(=O)[C@H](CCCNC(=N)N)N(C)C(=O)[C@@H](NC(C)=O)C(C)(C)SSC2(C)C)C(N)=O)C(N)=O)C(C)(C)SSC1(C)C [compound 107] (I: Ac-[Pen][NMeR]SDTL[Pen][Phe(4-F)][dE][dK]-NH2 / II: Ac-[Pen][NMeR]SDTL[Pen][Phe(4-F)][dE][dK]-NH2; disulfide I:1-I:7, II:1-II:7; linker I:10-II:10 via Diglycolyl)
IC50 (α4β7): 0.025 to 0.05 µM | half-life at 22 μM [1, 2]: > 3 h

CC(=O)N[C@@H]1C(=O)N(C)[C@@H](CCCNC(=N)N)C(=O)N[C@@H](CO)C(=O)N[C@@H](CC(=O)O)C(=O)N[C@@H]([C@@H](C)O)C(=O)N[C@@H](CC(C)C)C(=O)N[C@H](C(=O)N[C@@H](Cc2c[nH]c3ccccc23)C(=O)O)C(C)(C)SSC1(C)C [compound 127] (Ac-[Pen][NMeR]SDTL[Pen]W-OH; disulfide 1-7)
IC50 (α4β7): 0.1 to 0.5 µM | half-life at 22 μM ([1]; simulated intestinal fluid (SIF) with 1% porcine pancreatin, alone or in parentheses after >360, read-out: Stabilty SIF t1/2, in hr (converted)): 35 h

CC(=O)N[C@@H]1C(=O)N(C)[C@@H](CCCNC(=N)N)C(=O)N[C@@H](CO)C(=O)N[C@@H](CC(=O)O)C(=O)N[C@@H]([C@@H](C)O)C(=O)N[C@@H](CC(C)C)C(=O)N[C@H](C(=O)N[C@@H](Cc2c[nH]c3ccccc23)C(=O)N[C@@H](CCC(=O)O)C(=O)O)C(C)(C)SSC1(C)C [compound 128] (Ac-[Pen][NMeR]SDTL[Pen]WE-OH; disulfide 1-7)
IC50 (α4β7): 0.05 to 0.1 µM | half-life at 22 μM [1, 2]: 3 h
